Columns and labels:
[1] = tested on: HOS (human osteosarcoma); experiment: In vitro cytotoxicity, Calcein AM assay, HOS; assay type: cell-based; settings: Homo sapiens, 72 h, 3-day Calcein-AM assay
Text: Because toxic compounds adversely affect cell metabolic processes, many standard cytotoxicity assays are based on measuring the rate of metabolism of various artificial substrates. The resulting product is then quantified, for example, by spectrometry. Assays can be easily modified for use in 96-well plates, A microtiter assay based on the quantification of Calcein AM metabolism was used to evaluate the cytotoxicity of cytokinins, for example meta-topolin, ortho-topolin, kinetin, BAP or its mesylate salts, but also a number of other cytokinin mesylate derivatives according to the invention. The test is widely used in drug screening programs and in chemosensitivity testing. In living cells, Calcein AM is enzymatically hydrolyzed and the accumulation of the resulting calcein is manifested by green fluorescence. […] These cells were maintained in standard DMEM or RPMI medium (Sigma, MO, USA) supplemented with heat-inactivated fetal bovine serum (10%) with 2 mM L-glutamine and penicillin-streptomycin (1%) under standard cell culture conditions (37° C., 5% CO2 in a humid environment) and subcultured two or three times a week using a standard trypsinization procedure. Approximately 10,000 cells in 80 μl of medium were seeded in a 96-well microtiter plate. After 12 hours of incubation, the compounds to be tested were added in 20 μl aliquots. Control cultures were treated with DMSO alone. […] After 72 hours of incubation, Calcein AM solution (Molecular Probes) was added to a final concentration of 1 μg/ml and the cells were incubated for another hour.
(§1) Cytoxicity of compounds was tested on panel of cell lines of different histogenetic and species origin.

[2] = tested on: G361 (malignant melanoma); experiment: In vitro cytotoxicity, Calcein AM assay, G-361; assay type: cell-based; settings: Homo sapiens, 72 h, 3-day Calcein-AM assay
Text: Because toxic compounds adversely affect cell metabolic processes, many standard cytotoxicity assays are based on measuring the rate of metabolism of various artificial substrates. The resulting product is then quantified, for example, by spectrometry. Assays can be easily modified for use in 96-well plates, A microtiter assay based on the quantification of Calcein AM metabolism was used to evaluate the cytotoxicity of cytokinins, for example meta-topolin, ortho-topolin, kinetin, BAP or its mesylate salts, but also a number of other cytokinin mesylate derivatives according to the invention. The test is widely used in drug screening programs and in chemosensitivity testing. In living cells, Calcein AM is enzymatically hydrolyzed and the accumulation of the resulting calcein is manifested by green fluorescence. The following cell lines—RPMI 8226 (multiple myeloma), CEM (T-lymphoblastic leukemia), K562 (chronic myeloid leukemia), HL-60 (promyelocytic, leukemia), MCF-7 (breast adenocarcinoma), HeLa (cervical cancer), G361 (malignant melanoma), HOS (human osteosarcoma) and BJ (human foreskin fibroblasts)—were obtained from the American Type Culture Collection (Manassas, VA, USA). These cells were maintained in standard DMEM or RPMI medium (Sigma, MO, USA) supplemented with heat-inactivated fetal bovine serum (10%) with 2 mM L-glutamine and penicillin-streptomycin (1%) under standard cell culture conditions (37° C., 5% CO2 in a humid environment) and subcultured two or three times a week using a standard trypsinization procedure. Approximately 10,000 cells in 80 μl of medium were seeded in a 96-well microtiter plate. After 12 hours of incubation, the compounds to be tested were added in 20 μl aliquots. Control cultures were treated with DMSO alone. […] Serial, 3-fold dilutions (six in total, peak concentrations in 166 μM incubations) of each compound were tested. After 72 hours of incubation, Calcein AM solution (Molecular Probes) was added to a final concentration of 1 μg/ml and the cells were incubated for another hour. Free calcein fluorescence was then quantified using a Fluoroscan Ascent fluorometer (Microsystems), and the percentage of surviving cells in each well was calculated by dividing the OD obtained from each cell by the exposed cells by the mean OD obtained from control wells×100%, Finally, IC50 values (concentration causing a 50% decrease in cellular esterase activity) were calculated for each compound generated from dose-response curves (Krys̆tof et al., 2005, Bioorg. Med. Chem. Lett. 12, 3283-3286). The IC50 values reported here are averages obtained from at least three independent experiments, where the individual replication values fell within 20% of the average. Growth inhibition was calculated using the following equation: […](mean FDwell exposed to drug−mean FDblank)/(mean FDcontrol well−mean FDblank)×100%.
as §1

[3] = tested on: CEM (T-lymphoblastic leukemia); experiment: In vitro cytotoxicity, Calcein AM assay, CEM; assay type: cell-based; settings: 3-day Calcein-AM assay
Method in brief: (§2)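 Read-out: green fluorescence of calcein formed by hydrolysis of Calcein AM (1 μg/ml final, 1 h) in living cells. Cells (~10,000/well) got compounds 12 h after seeding and were exposed 72 h; DMSO alone as control.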

[4] = tested on: HL-60 (promyelocytic, leukemia); experiment: In vitro cytotoxicity, Calcein AM assay, HL60; assay type: cell-based; settings: Homo sapiens, HL-60, 72 h, 3-day Calcein-AM assay
Method in brief: as §2

[5] = tested on: rose explants; experiment: In vitro and post vitro multiplication and rooting of rose; assay type: in vivo, Rosa multiflora; settings: for Number of roots per plant / Overall length of plant (cm): Ex vitro, after four weeks of acclimatising in peat; for Number of new shoots per explant / Number of roots per explant / Overall length of explant (cm) / number of flowers per explant: In vitro, 10 μM cytokinin, 8 weeks
Protocol: The aim of this experiment was to test whether the new compounds are of practical use in tissue culture practice. The multiplication rate was investigated and the post vitro effects on rooting were examined Rosa hybrida (pot rose cultivar) was cultured in 350 ml vessels with a screw on polycarbonate lid. Each culture vessel contained 100 ml autoclaved medium (120° C., 20 min). The cultures were maintained at 23±2° C. under a 16 h photoperiod at 40 μM·m^−2 s^−1 PAR. The basal medium (BMR) contained Murashige and Skoog (1962) macroelements, microelements and vitamins, 95 μM NaFeEDTA, 555 μM myo-inositol, 111 mM sucrose, 1.332 mM glycine, 684 μM L-glutamine and 7 g/l agar. This medium was supplemented with 10 μM BAP, mT, or 3MeOBAP, or the corresponding mesylate salts. The control medium didn't contain any cytokinin After a culture period of 8 weeks, the number of induced shoots per explant was determined, as well as root number/explant and total root length/explant. The roots were removed and the explants (shoot clusters) were planted in unfertilised peat. After four weeks of acclimatising in a fog unit, root number and root length was determined. As expected, a cytokinin free medium yielded almost no new shoots. The original shoot explant grew out as a good quality single shoot that rooted very well. […] Explants growing on cytokininin mesylates were characterized by a high multiplication index (a large number of new shoots) and were more rooted in comparison with free bases. The use of cytokinin mesylates led to an increase in all monitored parameters in plant culture compared to free cytokinin bases.

[6] = tested on: skin fibroblasts BJ; experiment: Cytotoxicity for non-cancer cells, resazurine reduction assay, BJ; settings: human, 72 h
Protocol: (§3) It is used for viability testing of both bacterial and eukaryotic cells. […] Cultivation medium was DMEM with 10% FBS. Before the experiment, the cells were subcultured for 2 weeks. For the cytotoxicity evaluation, the cells were trypsinized and pipetted into 96 well plates (5000 cells per well in 80 microliters). After 24 hours, 5× concentrated solutions of the tested compounds in the medium were added. […] IC50 values were calculated from dose response curves using drc library for R programming environment.

[7] = tested on: keratinocytes HaCaT; experiment: Cytotoxicity for non-cancer cells, resazurine reduction assay, HaCaT
Protocol: as §3

[8] = resazurin, 72 hour treatment, HaCaT

SMILES	IC50 [1] [µM]	IC50 [2] [µM]	IC50 ([3]; 72 h) [µM]	IC50 [4] [µM]	Number of roots per plant [5]	Overall length of plant (cm) [5] [cm]	Number of new shoots per explant [5]	Number of roots per explant [5]	Overall length of explant (cm) [5] [cm]	number of flowers per explant [5]	Cytotoxicity for Fibroblasts (GI20) BJ [6] [µM]	Cytotoxicity for Fibroblasts (GI20) HaCaT [7, 8] [µM]	Cytotoxicity for Fibroblasts (GI20) HaCaT ([7]; human, 72 h) [µM]	Number of roots per plant ([5]; listed as 6-benzylaminopurine)	Number of new shoots per explant ([5]; listed as 6-benzylaminopurine)	IC50 ([3]; mesylate) [µM]
COc1cccc(CNc2ncnc3nc[nH]c23)c1 [3MeOBAP, 6-(3-methoxybenzylamino)purine]	> 167	125	> 167	> 167	1.7	4.1	4.3	0.0	0.0	0.03	–	–	–	–	–	–
CS(=O)(=O)O.c1ccc(CNc2ncnc3nc[nH]c23)cc1 [BAP mesylate, 6-benzylaminopurine mesylate]	–	–	–	–	0.9	1.4	4.1	0.0	0.0	0.00	>100	>100	–	–	–	–
c1ccc(CNc2ncnc3nc[nH]c23)cc1 [BAP, 6-benzylaminopurine]	> 167	–	> 167	> 167	rooted badly	1.1	high shoot multiplication rate	0.0	0.0	0.00	137.5	–	>100	0.6	3.8	–
CS(=O)(=O)O.Oc1cccc(CNc2ncnc3nc[nH]c23)c1 [mT mesylate, 6-(3-hydroxybenzylamino)purine mesylate]	–	–	–	–	1.8	4.3	2.4	0.0	0.0	0.17	>100	>100	–	–	–	> 167
Oc1cccc(CNc2ncnc3nc[nH]c23)c1 [meta-topolin (mT), 6-(3-hydroxybenzylamino)purine]	> 167	> 167	90.1	79.2	1.4	3.8	2.1	0.0	0.0	0.16	>100	>100	–	–	–	–
Oc1ccccc1CNc1ncnc2nc[nH]c12 [ortho-topolin (oT), 6-(2-hydroxybenzylamino)purine]	> 167	103	69.2	78	–	–	–	–	–	–	98.7	>100	–	–	–	–

Reference: patent publication US12570657B2, “Mesylate salts of heterocyclic cytokinins, compositions containing these derivatives and use thereof” (UNIVERZITA PALACKEHO V OLOMOUCI, priority 2020, dated 2026)
